Data reported in publication PMC2719696, “Kinetics and Cellular Site of Glycolipid Loading Control the Outcome of Natural Killer T Cell Activation” (Immunity, 2009).

Test system: human iNKT cells
Experiment: In vitro expansion of human iNKT cells from PBMC (FACS with 6B11 and anti-CD3)
Format: cell-based
Settings: 100 nM glycolipid, IL-2 and IL-7, day 7
Procedure: Figure S3. Responses of human iNKT cells to Th2 cell-type cytokine biasing […]
(A) For in vitro expansion of iNKT cells, 2 million human PBMC per well in 96 well plates were stimulated with 100 nM of glycolipids in the presence of IL-2 (60 IU/ml) and IL-7 (5 ng/ml). At day 7, cultures were harvested and analyzed by FACS using 6B11 (specific for the TCRα chain of iNKT cells) and anti-CD3 mAbs. Significant expansion of human […]
all glycolipids with the exception of OCH. Similar results were obtained in three independent experiments from 6 different donors.
(B) Cytokine production by a CD4+ human iNKT clone (HDD11) stimulated with human monocyte-derived dendritic cells pulsed with αGalCer analogues. For in vitro activation of human iNKT cells, 5 x 10^4 cloned iNKT cells per well were stimulated with 2.5 x104 […]

With CCCCCCCCCCCCCCCCCCCCCCCC(=O)NC(COC1OC(CO)C(O)C(O)C1O)C(O)C(O)CCCCC (stereo not shown) [OCH] the “expansion of human iNKT cells (percentage of total viable lymphocytes)” value was “exception”.
